For data set [1], the system named is clinical isolates of Gram-negative bacteria (Klebsiella pneumoniae, Pseudomonas aeruginosa). The data set is described as follows: Therapeutic index, Gram-negative clinical isolates. From the text: (§1) We determined the therapeutic index of each peptide, which we defined as the ratio of Maximum Hemolytic Activity (Hmax) to MIC50 (Hmax/MIC50).
(§2) The results are shown in Table 7 (Gram-positive) and Table 8 (Gram-negative). Regarding the Gram-positive bacteria, the palindromic, dimeric and tetrameric peptides were active chiefly against S. aureus. This trend was consistent with results of the experiments on the ATCC strains, in which these peptides were only active against the sensitive strain of the […] bacteria.

Data set [2] deals with clinical isolates of Gram-positive bacteria (Enteroccocus faecium, Staphylococcus aureus). The data set is described as follows: Therapeutic index, Gram-positive clinical isolates.
Source text: as §1, §2

Data set [3] concerns Enterococcus faecalis ATCC 29212 (sensitive). The data set is classed as cell-based. Here is the method: (§3) We screened all five peptides against the ATCC reference strains and the clinical isolates according to Method M7-A7 of the National Committee for Clinical Laboratory Standards (CLSI, [2007]). The MIC50 and MBC values were determined using a broth microdilution and growth inhibition method previously reported by Leon-Calvijo et al. ([2015]), with some modifications (Wiegand et al., [2008]). Briefly, the MIC50 experiments comprised a liquid-inhibition growth assay in a sterile, untreated, 96-well flat-bottom tissue culture plate. The bacteria were cultured overnight n Mueller Hinton agar; three colonies were transferred to 8 mL of Mueller Hilton broth and incubated at 37°C until the mid-exponential phase of growth. The turbidity of the cultures was measured and adjusted spectrophotometrically to a McFarland standard of 0.5, and then diluted to a final concentration of 5 × 10^7 colony forming units (CFU) per well. Stock solutions (2,000 μM) of each test peptide were serially diluted to final concentrations (per well) of 200, 100, 50, 25, 12.5, and 6.25 μM. Each concentration was evaluated in duplicate and each assay was performed in triplicate.
(§4) Wells containing Mueller Hilton broth with bacterial inoculum only served as bacterial-growth controls. Additional controls included Mueller Hilton broth alone (as blank) and Mueller Hilton broth with ciprofloxacin (2 μg/mL; as positive control). The microplate was incubated for 24 h at 37°C, and growth inhibition was measured by monitoring the optical density at 620 nm (OD620). The MIC50 was defined as the peptide concentration at which bacterial growth was inhibited by 50%.
(§5) To determine the MBC, an aliquot from each well of the MIC50 assay was spread onto Mueller Hilton agar. After 18 h at 37°C, the concentration that inhibited bacterial growth was determined. Each of these tests was performed four times. MBC was defined as the lowest concentration of peptide at which the number of bacteria was reduced by 99.9% in vitro (European Committee for Antimicrobial Susceptibility Testing, [2000]).

The test system of data set [4] is Pseudomonas aeruginosa ATCC 10145 (sensitive). The format is cell-based. As to the method: as §3, §4, §5
In data set [5] the test system is Enterococcus faecalis ATCC 51575 (resistant). The data set is classed as cell-based. Here is the method: as §3, §4, §5
Data set [6] relates to Pseudomonas aeruginosa ATCC 27853 (resistant). The format is cell-based. Here is the method: as §3, §4, §5
In a further data set the test system is human erythrocytes. As to the kind of experiment: Hemolytic activity. The data set is classed as cell-based. Conditions: red cells of human, 2 h. Here is the method: Human erythrocytes collected from the blood samples of healthy humans were harvested by centrifugation for 7 min at 162 × g and washed three times in phosphate-buffered saline (PBS). The erythrocytes (2% hematocrit in PBS) were incubated with peptide molecules at several concentrations (6.25, 12.5, 25, 50, and 100 μM) for 2 h at 37°C. PBS was used as negative control for hemolysis, and sterile distilled water was used as positive control (100% hemolysis). The plate was subsequently centrifuged at 1,459 × g for 10 min at 4°C. Aliquots of the supernatant from each well (75 μL) were carefully transferred to a new sterile 96-well plate, and hemolytic activity was evaluated by measuring the OD492 using an Asys Expert Plus Microplate reader. The experiments were performed in duplicate, and hemolytic activity was calculated for each peptide.

Data set [7] has as its system Staphylococcus aureus clinical isolate 52,013. The data set is classed as cell-based. In a few lines: (§6)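 MIC50 values come from a liquid growth-inhibition assay: Mueller Hinton broth, inoculum of […] from McFarland 0.5 cultures, peptide at final 6.25–200 μM, 24 h at 37°C, OD620 read-out. 50% growth inhibition defined the MIC50.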
In data set [8] the test system is Enterococcus faecium clinical isolate 1,040. The format is cell-based. Put shortly: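 Mid-exp. bacteria → McF 0.5 → […], MH broth; peptide final 6.25–200 μM (2-fold); 24 h, 37°C; OD620; MIC50 = 50% inhibition. MBC: well aliquots plated on MH agar, 18 h 37°C, ≥99.9% reduction.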
In data set [9] the test system is Pseudomonas aeruginosa clinical isolate 48,220. The data set is classed as cell-based. Put shortly:
as §6

For data set [10], the system named is Gram-negative ATCC strains (K. pneumoniae 13883 and 700603, P. aeruginosa 10145 and 27853).
Source text: as §1
The therapeutic index (TI) is a ratio of the toxic dose of a substance to its therapeutically-active dose and can be calculated different ways (e.g., LD50/ED50). Here, we calculated a TI value for each peptide against all the Gram-positive or the Gram-negative ATCC strains, by dividing its Hmax by its MIC50 for the given group of strains. […] Additionally, to make our quantitative analysis more robust [geometric mean (Khachatryan et al., [2017]) and fold values], we have included MIC50 values for these peptides against S. aureus and K. pneumoniae that we previously obtained using the same assay, the M7-A7 method of the National Committee for Clinical Laboratory Standards (Leon-Calvijo et al., [2015]).

Ends that are not written are not given here.

As for RWQWRWQWR [PLS], the Gm, geometric mean of MIC50 values was determined as 17.4 µM in [1], 13.7 in data set [2] and 54.1 in data set [10]. Further, the MBC in [3] (ATCC 29212, 18 h) was 100.0 µM; in [4] (ATCC 10145, 18 h) it was over 200.0 µM; in data set [5] (ATCC 51575, 18 h), over 200.0 µM; in [6] (ATCC 27853, 18 h), over 200.0 µM; in data set [7] (clinical isolate 52,013, 18 h), 100.0 µM; in data set [8] (clinical isolate 1,040, 18 h), over 100 µM. The sequence also yielded an MBC in data set [9] (clinical isolate 48,220, 18 h) of over 100 µM. Also, the MIC50 was 25.6 µM in [3] (ATCC 29212, 24 h); 99.7 µM in data set [4] (ATCC 10145, 24 h); over 200.0 µM in data set [5] (ATCC 51575, 24 h); 107.2 µM in data set [6] (ATCC 27853, 24 h); 8.3 µM in data set [7] (clinical isolate 52,013, 24 h); over 100 µM in data set [8] (clinical isolate 1,040, 24 h). In [9] (clinical isolate 48,220, 24 h), this sequence gave an MIC50 of over 100 µM. In addition, the “H50, concentration of peptide leading to 50% hemolysis” value in the data set with human erythrocytes is over 100 µM.

(Values after PMC5840262, “Design, Synthesis and Evaluation of Branched RRWQWR-Based Peptides as Antibacterial Agents Against Clinically Relevant Gram-Positive and Gram-Negative Pathogens” (Frontiers in Microbiology, 2018).)
